In PMC12519824, “Fatal outcome of severe serotonin syndrome and acute respiratory distress syndrome after self-poisoning with paroxetine: a case report” (Journal of Medical Case Reports, 2025):
Where two headings read alike, the source gives them in different places.

Key:
[1] = Serum paroxetine level monitoring after self-poisoning; format: in vivo, human
Description: However, the exact dosage and frequency of intake were unknown. […] As no severe life-threatening serotonin syndrome symptoms were present at that point and the patient´s condition kept improving, the decision for supportive treatment was made. […] Once vv-ECMO was initiated, CytoSorb™ hemoadsorption could easily be added in an attempt to eliminate paroxetine.

[2] = Clinical course of paroxetine overdose in multidrug self-poisoning (case report); format: in vivo, human
Description: (§1) A person with an estimated body weight of 50 kg ingested a total amount of 3150 mg agomelatine (63 mg/kg), 4000 mg paroxetine (80 mg/kg), 8000 mg paracetamol (160 mg/kg), 5000 mg acetylsalicylic acid (100 mg/kg), 1000 mg caffeine (20 mg/kg), and 25,200 mg ibuprofen (504 mg/kg) in suicidal intent (total of 336 pills). […] The patient was reported to be on regular paroxetine therapy. However, the exact dosage and frequency of intake were unknown. […] Owing to reported paracetamol overdose, N-acetylcysteine was administered (Fig. 1) according to the regimen described by Prescott et al.. All other medication—except for paroxetine—was deemed to be no longer clinically relevant by the contacted poison information center, based on the time elapsed since ingestion. […] The patient was then transferred to our tertiary care institution for specialized ARDS treatment. […] Therefore, a symptomatic therapy with olanzapine (10 mg/day) was started. Analgosedation with sufentanil was switched to hydromorphone to prevent further aggregation of serotonin, and corticosteroids were administered in an attempt to enhance paroxetine elimination by CYP2D6 induction. […] Once vv-ECMO was initiated, CytoSorb™ hemoadsorption could easily be added in an attempt to eliminate paroxetine.

[3] = indicated value of the test laboratory; ref test laboratory; cited from earlier work
[4] = cited from earlier work
[5] = cited from earlier work; remark: listed apart in the source
[6] = N-acetylcysteine treatment after paracetamol overdose (Prescott regimen); format: in vivo, human; details: 8000 mg paracetamol (160 mg/kg) ingested; e.g. elevated transaminases
Description: as §1

[7] = during serotonin syndrome attributed to paroxetine overdose

Question: For Fc1ccc([C@@H]2CCNC[C@H]2COc2ccc3c(c2)OCO3)cc1 [paroxetine], which “time with paroxetine levels in the lethal dose range” value ([1]; after ingestion of 4000 mg paroxetine) is on record?
Answer: 20 days

Question: And the concentration at 8 day ([1]; human, serum, oral, day 8 after ingestion of 4000 mg paroxetine (80 mg/kg), multidrug poisoning, one patient)?
Answer: 3410 ng/mL

Question: And the “clinical toxicity after overdose” value ([2]; 4000 mg paroxetine with co-ingested drugs, person)?
Answer: severe serotonin syndrome complicated by acute respiratory distress syndrome

Question: And the outcome ([2]; 4000 mg paroxetine, despite CytoSorb, corticosteroids, olanzapine 10 mg/day and intensive care)?
Answer: the patient died on day 20 postingestion

Question: And the “onset of serotonin syndrome (day after ingestion)” value ([2]; 4000 mg paroxetine, persisted until death on day 20)?
Answer: 5 days

Question: What about the recurrent fever [2, 7] of the same compound?
Answer: up to 39.5 °C

Question: And the tachycardia [2, 7]?
Answer: up to 142 bpm

Question: What about the hypotension ([2]; during serotonin syndrome attributed to paroxetine overdose, printed 'hypotension up to', catecholamines needed) of the same compound?
Answer: up to 82/52

Question: And the “critical value of paroxetine level” value [3]?
Answer: > 120 ng/mL

Question: And the “therapeutic range of paroxetine level” value [3]?
Answer: 20 to 65 ng/mL

Question: And the plasma protein binding ([4]; at therapeutic doses)?
Answer: 95%

Question: And the therapeutic half-life [4]?
Answer: 7 to 37 h

Question: What about the volume of distribution [4] of the same compound?
Answer: 17 L/kg

Question: What about the “prolonged half-life in poisoning” value ([4]; poisoning with a dose of 1 g paroxetine) of the same compound?
Answer: 220 h

Question: What about the “prolonged half-life in poisoning” value ([4]; poisoning with a dose of 2 g paroxetine) of the same compound?
Answer: 190 h

Question: And the “complication of poisoning in a previous case report” value ([5]; paroxetine poisoning)?
Answer: severe ARDS

Question: And the “adverse event with therapeutic intake in one patient” value ([5]; stopped after paroxetine discontinuation)?
Answer: recurrent ARDS

Question: For CC(=O)N[C@@H](CS)C(=O)O [acetylcysteine, N-acetylcysteine], which “development of paracetamol poisoning after treatment” value [6] is on record?
Answer: no clinically relevant paracetamol poisoning

Question: With COc1ccc(C(CN(C)C)C2(O)CCCCC2)cc1 (stereo not shown) [venlafaxine] as the compound, how does the “adverse events after intentional overdose in a case report” value [5] read?
Answer: tremors, muscle rigidity, and sustained ankle clonus, followed by ARDS
